This passage reports IC50 results from ChEMBL document CHEMBL1135034, “Design and synthesis of dual inhibitors for matrix metalloproteinase and cathepsin” (Bioorg Med Chem Lett, 2002).

Usually IC50 stands for the concentration that inhibits the measured activity by half. A low value points to higher potency.

Some results are limits rather than exact numbers.

One experiment addresses Procathepsin L (Homo sapiens, UniProt P07711). The experiment can be described thus: Inhibition of Cathepsin L from human kidney. The class given is tissue-based.
The next experiment concerns the target T1, Interstitial collagenase (Homo sapiens, UniProt P03956).
T1 sequence (P03956 whole entry): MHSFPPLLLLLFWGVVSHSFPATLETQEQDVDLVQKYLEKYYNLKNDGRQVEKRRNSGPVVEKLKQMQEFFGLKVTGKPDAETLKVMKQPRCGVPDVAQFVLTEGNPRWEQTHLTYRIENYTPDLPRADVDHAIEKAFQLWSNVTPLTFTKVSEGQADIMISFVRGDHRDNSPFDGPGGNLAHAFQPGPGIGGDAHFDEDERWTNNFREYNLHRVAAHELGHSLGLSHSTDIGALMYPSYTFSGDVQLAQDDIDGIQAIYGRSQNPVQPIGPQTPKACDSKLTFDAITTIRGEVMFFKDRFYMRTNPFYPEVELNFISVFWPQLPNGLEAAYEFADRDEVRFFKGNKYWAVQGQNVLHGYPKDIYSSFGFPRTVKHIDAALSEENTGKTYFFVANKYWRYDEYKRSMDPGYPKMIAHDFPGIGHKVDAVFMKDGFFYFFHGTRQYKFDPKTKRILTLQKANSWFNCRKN
The experiment is described as follows: Inhibition of Matrix metalloprotease-1.

Sequence of Procathepsin L (P07711 whole entry): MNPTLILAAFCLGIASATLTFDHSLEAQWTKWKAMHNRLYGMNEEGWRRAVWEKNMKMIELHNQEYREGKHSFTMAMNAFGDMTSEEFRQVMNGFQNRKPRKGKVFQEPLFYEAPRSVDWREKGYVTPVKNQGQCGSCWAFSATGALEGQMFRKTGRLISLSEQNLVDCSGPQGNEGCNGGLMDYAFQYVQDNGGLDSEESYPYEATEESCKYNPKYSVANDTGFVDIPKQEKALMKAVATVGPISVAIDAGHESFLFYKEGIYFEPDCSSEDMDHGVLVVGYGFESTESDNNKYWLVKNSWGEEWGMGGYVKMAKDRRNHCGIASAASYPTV

Turning to `CNC(=O)[C@H](Cc1ccccc1)NC(=O)[C@@H](CC(=O)NO)CC(C)C`, the IC50 at Procathepsin L was more than 1000 nM.
`C[C@@H](C=O)NC(=O)[C@H](Cc1ccccc1)NC(=O)OCc1ccccc1`: the values for the IC50 against Procathepsin L and at Interstitial collagenase were 3 nM and more than 1000 nM, respectively.
Taken in the same sequence, the figures for `CC(C)C[C@H](CC(=O)NO)C(=O)N[C@@H](Cc1ccccc1)C(=O)NCC=O` were 4300 nM and 12 nM.
For `CC(C)C[C@H](CC(=O)NO)C(=O)N[C@@H](Cc1ccccc1)C(=O)N[C@H](C=O)CC(C)C`, in that order: 7 nM and 1400 nM.
As to `CC(C)C[C@H](CC(=O)NO)C(=O)N[C@@H](CC(C)C)C(=O)N[C@@H](C)C=O`, the IC50 was 23 nM at Procathepsin L and 47 nM against Interstitial collagenase.
With `CC(C)C[C@H](CC(=O)NO)C(=O)N[C@@H](Cc1ccccc1)C(=O)N[C@@H](C)C=O`, the IC50 was 15 nM against Procathepsin L and 25 nM at Interstitial collagenase.
For `CCOC(OCC)[C@H](C)NC(=O)[C@H](Cc1ccccc1)NC(=O)[C@@H](CC(=O)NO)CC(C)C`, in that order: more than 1000 nM and 29 nM.
